Assay [1] concerns HrtBA. The note with it: 2 mM ATP; lipid nanodiscs; 37 °C; activation of ATPase; site in HrtB dimer.
In assay [2] the target is HrtB permease subunit of the heme efflux pump HrtBA from Corynebacterium diphtheriae (Corynebacterium diphtheriae NCTC13129). As to the kind of experiment: crystal structure.

By EC50 is commonly meant the midpoint of the concentration-response curve. A high value points to a less potent agent. The stoichiometry N is the number of molecules, sites or subunits per partner or assembly.

With `C=CC1=C(C)C2=Cc3c(C=C)c(C)c4[n]3[Fe+][n]3c(c(C)c(CCC(=O)O)c3=CC3=NC(=C4)C(C)=C3CCC(=O)O)=CC1=N2` [heme], the midpoint of the response in assay [1], the EC50, lay at 900 nM.
“HrtB permease subunit of the heme efflux pump HrtBA from Corynebacterium diphtheriae (natural protein)” showed a stoichiometry N in assay [2] of 2.
